These results are taken from PMC7363885, “Fluorescent artificial receptor-based membrane assay (FARMA) for spatiotemporally resolved monitoring of biomembrane permeability” (Communications Biology, 2020).

Molecules are shown by their SMILES.

Test system in one data set: not listed separately
Nature of the data set: FARMA: permeation of analytes into FAR-loaded liposomes (fluorescence, cuvette or stopped-flow). The conditions noted are these: FARMA with FAR-loaded liposomes or GUVs. The source says:
Elementary physical parameters, such as permeability coefficients, can be extracted from the full kinetic FARMA data. This kinetic profile → parameter mapping requires some assumptions to be made in regard to the permeation mechanism. We applied a reported permeation model for liposomes[31] to arrive at permeation rate constants (kp) and apparent permeability coefficients (Papp). The derivation of the mathematical relation (1), linking the fundamental permeability rate constant and permeability coefficient to experimental measurable kobs rate constants, the known total analyte and total FAR concentration, and the experimentally determined liposome radius (r), is shown in the Supplementary Information.1 Papp=kp⋅r/3=kobs/canalyte⋅cFAR⋅r/3 […]
The volume-to-surface correction factor r/3 accounts for the fact that the observed rates depend on the size, i.e., radius r, of the liposomal assembly. […] The initial-rate method can also be applied, see the Supplementary Information. Moreover, kobs/canalyte can be estimated by single-point measurements at selected canalyte concentration.
A solution of 2.5 mg/mL of POPC and 0.33 mg/mL of POPS in chloroform was purged with nitrogen and dried overnight under […] vacuum. […] The resulting FAR-loaded liposomes were separated from non-encapsulated species by size-exclusion chromatography (NAP-25 column), while maintaining the same buffer. The absence of non-encapsulated FAR was confirmed by adding a non-membrane-permeable species such as tryptophan to a fluorescence cuvette containing 25 µL of liposomes diluted in 1 mL HEPES (10 mM) buffer. Complete removal of non-encapsulated FAR is indicated by the absence of a significant fluorescence change upon Trp addition.
In a typical experiment, 20 µL of liposome solution loaded with FAR was diluted in 1 mL HEPES buffer (10 mM, pH 7.0) in a 1 mL quartz cuvette. An emission spectrum was recorded after 10 min of “equilibration time” on a Varian Eclipse spectrofluorometer thermostated at 22 °C with a water bath using λexc = 400 nm for FAR-1, λexc = 310 nm for FAR-2, and λexc = 330 nm for FAR-3. In the time-resolved experiments, the emission intensity at λobs = 450 nm for FAR-1, λobs = 370 nm for FAR-2, and λobs = 370 and 500 nm for FAR-3 (the latter is the emerging excimer band for certain FAR-3•analyte complexes) was recorded with an averaging time of 0.5 s. […] For single-point experiments, a full spectrum was recorded after a fixed time or several time intervals after analyte addition. […] Only FAR-analyte combinations were used for FARMA, for which no significant autofluorescence and competitive light absorption of the analyte occurred.
For each experiment, measurements from 6 injections were accumulated and the average of these traces was used for data analysis.
Calculation of the unimolecular permeation rate constants ( kp) and of the apparent permeability coefficients (Papp).
The passive diffusion (permeation) of small non-charged compounds follows a modified Fick’s law and can be expressed by a first order kinetics.1 Similar to first order chemical reactions, the kinetics curve can therefore be fitted monoexponentially to obtained the observed permeation rates (kobs). In our assay set-up, such an exponential fit is an approximation, since it neglects that a certain fraction of transported analyte is bound to the FAR and cannot exit the liposome. Nevertheless, the fit of the kinetic curves of the […]
approximation is justified.
For `O=P(O)(O)Oc1ccc2ccccc2c1` [2-naphthyl phosphate], the “membrane permeability (in words)” value is listed as “membrane-impermeable”.

The same data set, now with this note: monoexponential fit; analyte 40 µM (bulk), FAR-2 ca. 500 µM in the liposome interior; 20% error.
As to `Cc1ccccc1O` [2Me-phenol, 2-methylphenol], the kobs amounted to 0.33 s–1.
For the compound `Nc1ccc(Br)cc1` [4Br-aniline, 4-bromoaniline], the kobs stood at 4.0 s–1.
Take `N#Cc1ccc(N)cc1` [4CN-aniline, 4-cyanoaniline]: the kobs was 6.5 s–1.
As to `Nc1ccc(Cl)cc1` [4Cl-aniline, 4-chloroaniline], the kobs amounted to 4.0 s–1.
For the compound `Oc1ccc(Cl)cc1` [4Cl-phenol, 4-chlorophenol], the kobs is on record as 2.2 s–1.
As to `Nc1ccc(F)cc1` [4F-aniline], the kobs stood at 4.4 s–1.
On the same count and under the same terms, then `Oc1ccc(F)cc1` [4F-phenol], with 2.8 s–1; and `Nc1ccc(I)cc1` [4I-aniline], with 3.1 s–1; and `Oc1ccc(I)cc1` [4I-phenol, 4-iodophenol], with 0.69 s–1.
As for `O=[N+]([O-])c1ccc(O)cc1` [4NO2-phenol], the kobs came to 38 s–1.
On the same count and under the same terms, then `CN(C)c1ccc(C#N)cc1` [DMABN, 4-(N,N-dimethylamino) benzonitrile], with 0.68 s–1; and `c1ccc2[nH]ncc2c1` [indazole], with 2.4 s–1.
Same read-out and setting: then `Nc1c(F)c(F)c(F)c(F)c1F` [pentafluoroaniline], with 0.51 s–1.

Still in this data set, the particulars now being: source data of Fig. 5.
For `Cc1ccccc1O` [2Me-phenol, 2-methylphenol], the “kobs” value is 0.33 and the “log(kobs)” value is on record as -0.4815.
The like results for `Nc1ccc(Br)cc1` [4Br-aniline, 4-bromoaniline] were, in that order, 4 and 0.6021.
Consider `N#Cc1ccc(N)cc1` [4CN-aniline, 4-cyanoaniline], for which the “kobs” value is listed as 6.5 and the “log(kobs)” value is listed as 0.8129.
Regarding `Nc1ccc(Cl)cc1` [4Cl-aniline, 4-chloroaniline], the “kobs” value is recorded as 4 and the “log(kobs)” value is listed as 0.6021.
For the compound `Oc1ccc(Cl)cc1` [4Cl-phenol, 4-chlorophenol], the “kobs” value is on record as 2.2 and the “log(kobs)” value turned out to be 0.3424.
Turning to `Nc1ccc(F)cc1` [4F-aniline], the “kobs” value is 4.4 and the “log(kobs)” value amounted to 0.6434.
In the case of `Oc1ccc(F)cc1` [4F-phenol], the “kobs” value came to 2.8 and the “log(kobs)” value came to 0.4472.
With `Nc1ccc(I)cc1` [4I-aniline], the “kobs” value turned out to be 3.1 and the “log(kobs)” value is on record as 0.4914.
The like results for `Oc1ccc(I)cc1` [4I-phenol, 4-iodophenol] were, in that order, 0.69 and -0.1611.
For the compound `O=[N+]([O-])c1ccc(O)cc1` [4NO2-phenol], the “kobs” value turned out to be 38 and the “log(kobs)” value is listed as 1.58.
For the compound `CN(C)c1ccc(C#N)cc1` [DMABN, 4-(N,N-dimethylamino) benzonitrile], the “kobs” value is given as 0.68 and the “log(kobs)” value is reported as -0.1675.
With `c1ccc2[nH]ncc2c1` [indazole], the “kobs” value is recorded as 2.4 and the “log(kobs)” value was determined as 0.3802.
For the compound `Nc1c(F)c(F)c(F)c(F)c1F` [pentafluoroaniline], the “kobs” value was 0.51 and the “log(kobs)” value is -0.2924.

In a further data set the test system is FAR-1. Nature of the data set: Fluorescence titration, FAR•analyte complex formation in homogeneous solution. It is filed as binding. The note with it: FAR-1; 10 mM HEPES buffer (pH 7); 1:1 binding model; error estimate ≤ 20%. Here is the method: Fluorescence titrations were carried out in aqueous HEPES buffer (10 mM, pH 7, 22 °C) unless stated otherwise. To a solution of the FAR (typically at 10–30 μM) was stepwise added a solution of the analyte (typically up to 2 mM) and the fluorescence spectra were recorded. The normalized emissions at 450 nm (FAR-1) or at 370 nm (FAR-2) were fitted with an equation for a 1 : 1 binding by a least-square fit. The resulting affinity constants are reported in Supplementary Table 1. Representative titration plots are shown in Supplementary Fig. 1. Note that the high CB8-dye binding affinities correspond to a near quantitative degree of host-dye complexation, i.e., quantitative formation of the FAR, such that the subsequent binding of the analyte can be treated independently.
`O=C1C=CC(=O)C=C1` [1,4-benzoquinone]: the Ka is listed as 0.5 10^3 M−1.
Consider `O=C(O)C(=O)Cc1ccc(O)cc1` [4-hydroxyphenylpyruvic acid], for which the Ka is 17 10^3 M−1.
On to `N[C@@H](Cc1c[nH]c2ccc(O)cc12)C(=O)O` [5HO-Trp, 5-hydroxy tryptophan], for which the Ka is listed as 7.7 10^3 M−1.
The same measure, in the same setting: in the case of `CC(=O)NC(Cc1c[nH]c2ccccc12)C(=O)O` (stereo not shown) [NAc-Trp] it was 50 10^3 M−1; in that of `c1ccccc1` [benzene], 4 10^3 M−1; in that of `CC(C)(O/N=C(\C(=O)N[C@@H]1C(=O)N2C(C(=O)[O-])=C(C[n+]3ccccc3)CS[C@H]12)c1csc(N)n1)C(=O)O` [ceftazidime, reference compound], < 1 10^3 M−1.
For `O=C(N[C@H](CO)[C@H](O)c1ccc([N+](=O)[O-])cc1)C(Cl)Cl` [chloramphenicol, reference compound], the Ka is < 1 10^3 M−1.
On to `COc1ccc2cc([C@H](C)C(=O)O)ccc2c1` [naproxen, reference compound], for which the Ka is 2 10^3 M−1.
Take `CC(=O)Nc1ccc(O)cc1` [paracetamol, reference compound]: the Ka was 7 10^3 M−1.
On to `CCCN(CCOc1c(Cl)cc(Cl)cc1Cl)C(=O)n1ccnc1` [prochloraz], for which the Ka is 2.8 10^3 M−1.
In the case of `c1ccc2ncccc2c1` [quinoline], the Ka is 2.2 10^3 M−1.

The data set is the same for the next values; noted with them: pH 7.
As for `O=C(O)Cc1cc(O)ccc1O` [homogentisic acid], the Ka came to 0.14.
